Earlier results, collected in patent publication EP0534246A2, “Benzylamine derivatives and medicines with antiarrhythmic activity containing them” (BASF Aktiengesellschaft, priority 1991, dated 1993).

Molecular target: K^+ATP-Kanal (Homo sapiens, UniProt Q14654)
Conditions: J. Mol. Cell. Cardiol. 21, Suppl. 2, S. 9, 1989

Chain of K^+ATP-Kanal (Q14654 whole entry): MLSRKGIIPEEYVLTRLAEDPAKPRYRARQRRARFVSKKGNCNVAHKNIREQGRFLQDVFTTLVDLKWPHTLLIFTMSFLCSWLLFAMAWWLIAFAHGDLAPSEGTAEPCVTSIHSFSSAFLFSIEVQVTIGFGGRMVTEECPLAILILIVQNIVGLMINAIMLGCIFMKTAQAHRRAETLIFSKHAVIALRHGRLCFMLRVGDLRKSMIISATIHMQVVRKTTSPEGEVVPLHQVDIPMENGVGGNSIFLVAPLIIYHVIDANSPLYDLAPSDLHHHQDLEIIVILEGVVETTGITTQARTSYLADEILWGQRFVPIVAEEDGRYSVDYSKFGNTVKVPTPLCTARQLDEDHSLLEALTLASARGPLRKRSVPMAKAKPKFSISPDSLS
Chain of K^+ATP-Kanal (O60706 whole entry partner): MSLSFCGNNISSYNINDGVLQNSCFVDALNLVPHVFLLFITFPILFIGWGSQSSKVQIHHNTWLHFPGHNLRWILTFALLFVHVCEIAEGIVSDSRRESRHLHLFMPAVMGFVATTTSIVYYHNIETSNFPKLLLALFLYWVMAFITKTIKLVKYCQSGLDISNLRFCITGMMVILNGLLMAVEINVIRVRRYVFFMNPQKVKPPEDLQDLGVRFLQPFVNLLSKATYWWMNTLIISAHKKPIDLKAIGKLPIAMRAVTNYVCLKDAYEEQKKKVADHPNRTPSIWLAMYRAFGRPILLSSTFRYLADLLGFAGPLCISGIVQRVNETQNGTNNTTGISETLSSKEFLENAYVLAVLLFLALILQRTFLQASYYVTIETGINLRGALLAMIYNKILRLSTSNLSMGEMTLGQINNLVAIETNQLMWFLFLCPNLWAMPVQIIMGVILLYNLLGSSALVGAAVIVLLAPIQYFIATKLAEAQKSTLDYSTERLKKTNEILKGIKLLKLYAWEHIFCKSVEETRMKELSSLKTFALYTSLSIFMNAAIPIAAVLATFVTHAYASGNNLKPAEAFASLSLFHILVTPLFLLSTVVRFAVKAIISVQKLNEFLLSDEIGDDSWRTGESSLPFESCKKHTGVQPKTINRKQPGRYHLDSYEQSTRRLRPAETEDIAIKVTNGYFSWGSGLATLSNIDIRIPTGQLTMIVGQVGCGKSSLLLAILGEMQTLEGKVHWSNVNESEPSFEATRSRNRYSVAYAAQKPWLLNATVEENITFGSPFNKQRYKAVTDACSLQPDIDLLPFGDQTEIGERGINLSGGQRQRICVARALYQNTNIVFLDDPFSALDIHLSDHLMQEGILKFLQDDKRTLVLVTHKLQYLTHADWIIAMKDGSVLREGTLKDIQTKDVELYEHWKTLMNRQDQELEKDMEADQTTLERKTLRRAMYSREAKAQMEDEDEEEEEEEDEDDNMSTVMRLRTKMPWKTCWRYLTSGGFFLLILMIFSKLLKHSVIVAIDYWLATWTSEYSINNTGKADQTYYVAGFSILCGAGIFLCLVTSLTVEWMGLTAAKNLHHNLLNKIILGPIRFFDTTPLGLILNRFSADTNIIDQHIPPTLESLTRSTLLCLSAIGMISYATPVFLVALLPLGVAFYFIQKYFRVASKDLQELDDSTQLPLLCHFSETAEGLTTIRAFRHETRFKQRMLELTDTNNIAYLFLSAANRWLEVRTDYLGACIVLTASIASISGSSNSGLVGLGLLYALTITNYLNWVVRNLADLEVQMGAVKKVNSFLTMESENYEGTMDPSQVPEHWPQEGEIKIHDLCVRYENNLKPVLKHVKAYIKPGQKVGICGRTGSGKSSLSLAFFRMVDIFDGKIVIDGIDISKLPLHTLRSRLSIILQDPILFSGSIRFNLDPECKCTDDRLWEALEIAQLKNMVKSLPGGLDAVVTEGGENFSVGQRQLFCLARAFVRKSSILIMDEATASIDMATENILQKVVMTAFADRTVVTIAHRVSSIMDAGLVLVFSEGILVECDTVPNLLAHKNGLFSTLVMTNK

## CCCCCC(O)CCCC(=O)O (stereo not shown) [5-Hydroxydekanoat]
  Konzentration, bei der Wirkung gezeigt wird (Blocker des ATP-abhängigen K+-Kanals): ca. 100 um
